In ChEMBL document CHEMBL1255331, “Emergence of fluoroquinolone resistance in group B streptococcal isolates in Taiwan” (2008):
In brackets after ≈: the same amount, converted by molar mass.

Tests used:
Type in all cases: functional
[1] = tested on: Streptococcus sp. 'group B'; test: Antimicrobial activity against Streptococcus sp. 'group B' isolate 16 harboring gyrA Ser81Leu mutant, parC Ser79Tyr mutant and parE Ileu495Leu mutant gene by agar dilution method
[2] = tested on: Streptococcus sp. 'group B'; test: Antimicrobial activity against Streptococcus sp. 'group B' isolate 9 harboring gyrA Ser81Leu mutant, parC Ser79Tyr mutant and parE Ileu495Leu mutant gene by agar dilution method
[3] = tested on: Streptococcus sp. 'group B'; test: Antimicrobial activity against Streptococcus sp. 'group B' isolate 1 harboring gyrA Glu85Lys mutant, parC Ser79Tyr mutant and parE Ileu495Leu mutant gene by agar dilution method

Row | Compound | MIC [1] [µg/mL] | MIC [2] [µg/mL] | MIC [3] [µg/mL]
1 | O=C(O)c1cn(C2CC2)c2cc(N3CCNCC3)c(F)cc2c1=O [CIPROFLOXACIN] | 32 (≈ 96.6 µM) | 64 (≈ 193 µM) | 
2 | C[C@H]1NCc2cc(-c3ccc4c(=O)c(C(=O)O)cn(C5CC5)c4c3OC(F)F)ccc21 [GARENOXACIN] | 2 (≈ 4.69 µM) | 2 (≈ 4.69 µM) | 2 (≈ 4.69 µM)
3 | COc1c(N2CCNC(C)C2)c(F)cc2c(=O)c(C(=O)O)cn(C3CC3)c12 (configuration not stated) [GATIFLOXACIN] | 8 (≈ 21.3 µM) | 4 (≈ 10.7 µM) | 4 (≈ 10.7 µM)
4 | C[C@H]1COc2c(N3CCN(C)CC3)c(F)cc3c(=O)c(C(=O)O)cn1c23.C[C@H]1COc2c(N3CCN(C)CC3)c(F)cc3c(=O)c(C(=O)O)cn1c23.O [LEVOFLOXACIN] | 32 | 16 | 16
5 | COc1c(N2C[C@@H]3CCCN[C@@H]3C2)c(F)cc2c(=O)c(C(=O)O)cn(C3CC3)c12 [MOXIFLOXACIN] | 4 (≈ 9.96 µM) | 4 (≈ 9.96 µM) | 2 (≈ 4.98 µM)
6 | N[C@@H]1[C@H]2CN(c3nc4c(cc3F)c(=O)c(C(=O)O)cn4-c3ccc(F)cc3F)C[C@@H]12 [TROVAFLOXACIN] | 16 (≈ 38.4 µM) | 8 (≈ 19.2 µM) | 8 (≈ 19.2 µM)
